Patent US8778948B2, “Substituted phenylpiperazinyl aralkylalcohol derivatives, pharmaceutical compositions containing such derivatives and uses thereof” (priority 2008, dated 2014)
Structures can show the parent of a compound that is named as a salt. Marks after values point to notes of the source that are not given here.

Tests used:
[1] = biological target: opioid receptor subtype δ (Homo sapiens, UniProt P41143); test: Competitive radioligand binding ([3H]Diprenorphine), opioid receptor subtype δ; conditions: read-out: Inhibition percentage of competitive binding, δ
Chain of opioid receptor subtype δ (P41143 whole entry): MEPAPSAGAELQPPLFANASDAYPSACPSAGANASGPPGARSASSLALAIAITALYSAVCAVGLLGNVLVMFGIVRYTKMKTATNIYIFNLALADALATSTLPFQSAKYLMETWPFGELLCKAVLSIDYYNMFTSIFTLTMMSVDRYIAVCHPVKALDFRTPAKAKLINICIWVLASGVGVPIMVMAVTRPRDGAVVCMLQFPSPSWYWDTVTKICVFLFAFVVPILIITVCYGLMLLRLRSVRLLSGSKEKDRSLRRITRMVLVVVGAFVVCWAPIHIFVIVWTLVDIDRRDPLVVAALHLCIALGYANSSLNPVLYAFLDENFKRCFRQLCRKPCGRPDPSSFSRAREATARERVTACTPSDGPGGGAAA
Experimental: (§1) Competitive Binding Between the Compounds and Opioid Receptor Subtypes μ, δ, κ
(§2) The respective test compounds were added to the sample tube (final concentration of 10^−5M), incubated at 37° C. for 30 min and placed in ice bath to terminate the reaction. The reaction mixture was filtered through GF/C(Whatman) glass fiber filter by vacuum filtration on a Millipore sample collector. The filter was washed three times with 50 mM Tris-HCl (pH7.4), each with 4 ml; dried and transferred into a 0.5 ml Eppendorf tube, in which 0.5 ml lipophilic scintillation fluid was added. Radioactivity was detected by a LS6500 scintillation counter. Each concentration had three duplicate test tubes and each separate test was repeated 3 to 4 times.
(§3) Specific binding CMP value for each sample tube=overall binding CPM value for each sample tube-CPM value of non-specific binding tube. [Inhibition percentage of competitive binding between the test compound and different opioid receptor subtypes (%)=(100%−specific binding (CPM value) of sample tube/specific binding (CPM value) of solvent group×100%)]
Average was taken for each test drug from three duplicate tubes; each test was repeated two or more times. Data were presented as mean±SE and statistical comparison was made by ANOVA.

[2] = biological target: opioid receptor subtype κ (Homo sapiens, UniProt P41145); test: biochemical; format: binding; conditions: test concentration 10^−5 mol/L; [3H]Diprenorphine 0.4 nM; mean±SE; read-out: Inhibition percentage of competitive binding, κ
Chain of opioid receptor subtype κ (P41145 whole entry): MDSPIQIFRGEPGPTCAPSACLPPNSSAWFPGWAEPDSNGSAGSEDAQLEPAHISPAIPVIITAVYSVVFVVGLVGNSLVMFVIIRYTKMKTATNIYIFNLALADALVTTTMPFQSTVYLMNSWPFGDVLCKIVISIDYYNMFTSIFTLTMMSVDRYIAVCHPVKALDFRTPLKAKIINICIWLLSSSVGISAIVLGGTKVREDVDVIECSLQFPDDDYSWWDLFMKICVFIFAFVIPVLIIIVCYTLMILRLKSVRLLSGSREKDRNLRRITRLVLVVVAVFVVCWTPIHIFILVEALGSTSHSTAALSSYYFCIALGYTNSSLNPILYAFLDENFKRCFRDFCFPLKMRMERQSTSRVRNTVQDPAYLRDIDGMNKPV
Experimental: as §1, §2, §3
(§4) Average was taken for each test drug from three duplicate tubes; each test was repeated two or more times.

[3] = biological target: opioid receptor subtype μ (Homo sapiens, UniProt P35372); test: biochemical; format: binding; conditions: test concentration 10^−5 mol/L; [3H]Diprenorphine 0.4 nM; mean±SE; read-out: Inhibition percentage of competitive binding, μ
Chain of opioid receptor subtype μ (P35372 whole entry): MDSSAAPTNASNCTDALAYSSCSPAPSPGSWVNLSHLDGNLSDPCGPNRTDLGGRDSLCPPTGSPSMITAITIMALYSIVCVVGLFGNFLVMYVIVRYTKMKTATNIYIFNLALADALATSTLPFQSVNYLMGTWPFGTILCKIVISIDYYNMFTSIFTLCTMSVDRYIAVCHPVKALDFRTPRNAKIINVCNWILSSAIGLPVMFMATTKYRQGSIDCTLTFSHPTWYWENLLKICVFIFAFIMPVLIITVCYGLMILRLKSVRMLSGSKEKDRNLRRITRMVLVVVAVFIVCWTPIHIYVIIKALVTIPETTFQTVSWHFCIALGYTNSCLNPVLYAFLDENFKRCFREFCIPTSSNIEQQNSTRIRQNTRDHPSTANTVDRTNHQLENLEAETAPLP
Experimental: as §1, §2, §3, §4

[4] = in vivo; conditions: mouse, po, mice
Text: Studies of Acute Toxicity of the Compound I-1 and I-20
For statistics of 1-20, Bliss method was used (“Experimental Design and Statistical Basis for Drug Evaluation”, Changxiao Liu, Ruiyuan Su, first edition, Military Medical Science Press, 1993, 80-90).

[5] = tested on: Kunming mice; test: Acetic acid-induced abdominal writhing test in mice; format: in vivo; conditions: 1 h before 0.7% acetic acid i.p.
Experimental: Acetic Acid-Induced Abdominal Writhing Test in Mice
Kunming mice, SPF KM mice purchased from […] SLAC LABORATORY ANIMAL CO. LTD and kept in normal environment.
(§5) 2. Modes of Administration
The compounds were dissolved in water for injection at a concentration of 4 mg/ml, 2 mg/ml and 1 mg/ml and were given intragastrically to animals.
(§6) Three different doses (10, 20, and 40 mg/kg) were administered to the test groups.
Aspirin was used as a positive control and acetic acid writhing test was used.
30 mice (half male and half female) weighing 18-23 g were divided into five groups, including negative control group, positive control group, low dose group, medium dose group and high dose group:
Mice in test group received test drug (10 mg/kg, 20 mg/kg, 40 mg/kg) via intragastric administration. Negative control group received physiological saline (20 ml/kg) via oral administration. Positive control group received aspirin (200 mg/kg) via oral administration. One hour later, each group received 0.7% acetic acid 10 ml/kg intraperitoneally. Five minutes later, the number of writhes was counted within the subsequent 15 min period; inhibition percentage of writhing response in each test group was calculated by the following equation: […]

[6] = tested on: Kunming mice; test: Hot-plate test in mice; format: in vivo; conditions: 1 h post dose, hot plate 55° C.
Experimental: Kunming mice, SPF KM mice were purchased from […] SLAC LABORATORY ANIMAL CO. LTD and kept in normal environment.
as §5
The compounds were dissolved in water for injection at a concentration of 4 mg/ml, 2 mg/ml and 1 mg/ml and were given subcutaneously to animals.
as §6
Morphine was used as a positive control and hot plate test was used.
30-40 mice (half male and half female) weighing 18-23 g were used. First, each mouse was placed on a hot plat at 55° C. to determine basic pain threshold for 2-3 times. Those animals with basic pain threshold of 5-30 s were qualified, unqualified mice were not used. 30 qualified mice were divided into five groups, including negative control group, positive control group, low-dose group, medium-dose group and high-dose group:
Mice in test groups received test sample solution (10 mg/kg, 20 mg/kg, 40 mg/kg) via subcutaneous injection in the neck. Positive control group received subcutaneous injection of morphine (2 mg/kg). One hour later, pain threshold values were determined for mice in each group as post-drug pain threshold. Percentage increase in pain threshold was calculated according to the following equation: […]

COc1ccccc1N1CCN(C(C)C(O)c2ccc3[nH]c(=O)[nH]c3c2)CC1 (racemic) (as salt: hydrochloride)
melting point: 221 to 223 °C

CC(C(O)c1ccc2[nH]c(=O)sc2c1)N1CCN(c2cccc(C(F)(F)F)c2)CC1 (racemic) (as salt: hydrochloride)
melting point: 217 to 219 °C

COc1ccccc1N1CCN([C@@H](C)[C@H](O)c2ccc3c(c2)CC(=O)N3)CC1 (racemic) (as salt: hydrochloride) [IV-1, (1RS,2SR)-5-(1-hydroxy-2-(4-(2-methoxyphenyl)piperazin-1-yl)propyl)indolin-2-one]
melting point: 213 to 215 °C

C[C@@H]([C@H](O)c1ccccc1)N1CCN(c2cccc(C(F)(F)F)c2)CC1 (racemic) [Compound I-1, (1RS,2SR)-1-phenyl-2-(4-(3-trifluoromethylphenyl)piperazinyl)-propan-1-ol]
inhibition at 10 µM [1]: 0%
inhibition at 10 µM [2]: 2.7 ± 0.9%
inhibition at 10 µM [3]: 22.7 ± 2.2%
LD50 [4]: > 2000 mg/kg
Inhibition percentage of writhing response ([5]; 10 mg/kg Ig): 64.38 * %
Inhibition percentage of writhing response ([5]; 20 mg/kg Ig): 68.13 * %
Inhibition percentage of writhing response ([5]; 40 mg/kg Ig): 83.13 ** %
Percentage increase in pain threshold ([6]; 10 mg/kg S.c.): 4.53%
Percentage increase in pain threshold ([6]; 20 mg/kg S.c.): 11.7%
Percentage increase in pain threshold ([6]; 40 mg/kg S.c.): 89.62 ** %

C[C@H]([C@H](O)c1ccccc1)N1CCN(c2cccc(C(F)(F)F)c2)CC1 (racemic) [Compound I-2, (1RS,2RS)-1-phenyl-2-(4-(3-trifluoromethylphenyl)piperazinyl)-propan-1-ol]
Inhibition percentage of writhing response ([5]; 10 mg/kg Ig): 40.53%
Inhibition percentage of writhing response ([5]; 20 mg/kg Ig): 63.16 * %
Inhibition percentage of writhing response ([5]; 40 mg/kg Ig): 68.95 * %

C[C@@H]([C@H](O)c1ccccc1)N1CCN(c2cccc(Cl)c2)CC1 (racemic) [Compound I-3, (1RS,2SR)-1-phenyl-2-(4-(3-chlorophenyl)piperazinyl)-propan-1-ol]
Inhibition percentage of writhing response ([5]; 10 mg/kg Ig): 49.61%
Inhibition percentage of writhing response ([5]; 20 mg/kg Ig): 76.38 * %
Inhibition percentage of writhing response ([5]; 40 mg/kg Ig): 83.46 ** %

C[C@H]([C@H](O)c1ccccc1)N1CCN(c2cccc(Cl)c2)CC1 (racemic) [Compound I-4, (1RS,2RS)-1-phenyl-2-(4-(3-chlorophenyl)piperazinyl)-propan-1-ol]
Inhibition percentage of writhing response ([5]; 10 mg/kg Ig): 35.00%
Inhibition percentage of writhing response ([5]; 20 mg/kg Ig): 49.38 * %
Inhibition percentage of writhing response ([5]; 40 mg/kg Ig): 78.13 ** %

COc1ccc(N2CCN([C@@H](C)[C@H](O)c3ccccc3)CC2)cc1 (racemic) [Compound I-7, (1RS,2SR)-1-phenyl-2-(4-(4-methoxyphenyl)piperazinyl)-propan-1-ol]
Inhibition percentage of writhing response ([5]; 10 mg/kg Ig): 61.02%
Inhibition percentage of writhing response ([5]; 20 mg/kg Ig): 75.42 ** %
Inhibition percentage of writhing response ([5]; 40 mg/kg Ig): 70.34 * %

COc1ccc([C@@H](O)[C@H](C)N2CCN(c3ccccc3OC)CC2)cc1 (racemic) [Compound I-13, (1RS,2SR)-1-(4-methoxyphenyl)-2-(4-(2-methoxyphenyl)piperazinyl)-propan-1-ol]
Inhibition percentage of writhing response ([5]; 10 mg/kg Ig): 73.33 * %
Inhibition percentage of writhing response ([5]; 20 mg/kg Ig): 84.55 * %
Inhibition percentage of writhing response ([5]; 40 mg/kg Ig): 87.88 ** %
Percentage increase in pain threshold ([6]; 10 mg/kg S.c.): 16.19%
Percentage increase in pain threshold ([6]; 20 mg/kg S.c.): 74.59 * %
Percentage increase in pain threshold ([6]; 40 mg/kg S.c.): 142.41 ** %

COc1ccc([C@@H](O)[C@@H](C)N2CCN(c3ccccc3OC)CC2)cc1 (racemic) [Compound I-14, (1RS,2RS)-1-(4-methoxyphenyl)-2-(4-(2-methoxyphenyl)piperazinyl)-propan-1-ol]
Inhibition percentage of writhing response ([5]; 10 mg/kg Ig): 74.55 * %
Inhibition percentage of writhing response ([5]; 20 mg/kg Ig): 79.39 * %
Inhibition percentage of writhing response ([5]; 40 mg/kg Ig): 76.36%

C[C@@H]([C@H](O)c1ccc(NS(C)(=O)=O)cc1)N1CCN(c2cccc(C(F)(F)F)c2)CC1 (racemic) [Compound I-17, (1RS,2SR)-1-(4-methanesulfonamidophenyl)-2-(4-(3-trifluoromethylphenyl)piperazinyl)-propan-1-ol]
Percentage increase in pain threshold ([6]; 10 mg/kg S.c.): 59.02%
Percentage increase in pain threshold ([6]; 20 mg/kg S.c.): 147.36 ** %
Percentage increase in pain threshold ([6]; 40 mg/kg S.c.): 172.27 ** %

COc1ccccc1N1CCN([C@@H](C)[C@H](O)c2ccc3c(c2)CC(=O)N3)CC1 (racemic) [IV-1, (1RS,2SR)-5-(1-hydroxy-2-(4-(2-methoxyphenyl)piperazin-1-yl)propyl)indolin-2-one]
inhibition at 10 µM [1]: 0%
inhibition at 10 µM [2]: 5.3 ± 0.1%
inhibition at 10 µM [3]: 7.6 ± 0.8%
Inhibition percentage of writhing response ([5]; 10 mg/kg Ig): 92.92 ** %
Inhibition percentage of writhing response ([5]; 20 mg/kg Ig): 74.34 * %
Inhibition percentage of writhing response ([5]; 40 mg/kg Ig): 89.38 ** %

COc1ccccc1N1CCN([C@H](C)[C@H](O)c2ccc3c(c2)CC(=O)N3)CC1 (racemic) [IV-2, (1RS,2RS)-5-(1-hydroxy-2-(4-(2-methoxyphenyl)piperazin-1-yl)propyl)indolin-2-one]
Inhibition percentage of writhing response ([5]; 10 mg/kg Ig): 98.23 ** %
Inhibition percentage of writhing response ([5]; 20 mg/kg Ig): 97.35 ** %
Inhibition percentage of writhing response ([5]; 40 mg/kg Ig): 93.81 ** %

CC(=O)Oc1ccccc1C(=O)O [Aspirin, reference compound]
Inhibition percentage of writhing response ([5]; positive control aspirin 200 mg/kg oral): 95.05 ** %

COc1ccccc1N1CCN([C@@H](C)[C@H](O)c2ccccc2)CC1 [II-1, (1R,2S)-1-phenyl-2-(4-(2-methoxyphenyl)piperazinyl)-propan-1-ol]
Inhibition percentage of writhing response ([5]; 10 mg/kg Ig): 30.09%
Inhibition percentage of writhing response ([5]; 20 mg/kg Ig): 47.79 * %
Inhibition percentage of writhing response ([5]; 40 mg/kg Ig): 58.41 * %

COc1ccccc1N1CCN([C@@H](C)[C@@H](O)c2ccccc2)CC1 [II-2, (1S,2S)-1-phenyl-2-(4-(2-methoxyphenyl)piperazinyl)-propan-1-ol]
inhibition at 10 µM [1]: 12.8 ± 0.8%
inhibition at 10 µM [2]: 36.5 ± 1.6%
inhibition at 10 µM [3]: 5.3 ± 0.9%
Inhibition percentage of writhing response ([5]; 10 mg/kg Ig): 69.91 * %
Inhibition percentage of writhing response ([5]; 20 mg/kg Ig): 71.48 * %
Inhibition percentage of writhing response ([5]; 40 mg/kg Ig): 74.34 ** %

COc1ccccc1N1CCN([C@H](C)[C@@H](O)c2ccccc2)CC1 [III-1, (1S,2R)-1-phenyl-2-(4-(2-methoxyphenyl)piperazinyl)-propan-1-ol]
Inhibition percentage of writhing response ([5]; 10 mg/kg Ig): 69.28 ** %
Inhibition percentage of writhing response ([5]; 20 mg/kg Ig): 55.56 * %
Inhibition percentage of writhing response ([5]; 40 mg/kg Ig): 67.32 ** %

COc1ccccc1N1CCN([C@H](C)[C@H](O)c2ccccc2)CC1 [III-2, (1R,2R)-1-phenyl-2-(4-(2-methoxyphenyl)piperazinyl)-propan-1-ol]
inhibition at 10 µM [1]: 16.8 ± 2.3%
inhibition at 10 µM [2]: 40 ± 0.6%
inhibition at 10 µM [3]: 25.1 ± 1.3%
Inhibition percentage of writhing response ([5]; 10 mg/kg Ig): 64.05 ** %
Inhibition percentage of writhing response ([5]; 20 mg/kg Ig): 76.47 ** %
Inhibition percentage of writhing response ([5]; 40 mg/kg Ig): 86.27 ** %
Percentage increase in pain threshold ([6]; 10 mg/kg S.c.): 72.91%
Percentage increase in pain threshold ([6]; 20 mg/kg S.c.): 133.48 * %
Percentage increase in pain threshold ([6]; 40 mg/kg S.c.): 151.86 * %

CN1CC[C@]23c4c5ccc(O)c4O[C@H]2[C@@H](O)C=C[C@H]3[C@H]1C5 [morphine, reference compound]
Percentage increase in pain threshold ([6]; positive control morphine 2 mg/kg S.c.): 202.5 ** %
